Reference: patent US6896895B2, “Carotenoid esters, carotenoid-enriched feeds, and methods of pigmenting foods and foodstuffs” (DSM IP Assets B.V., priority 2000, dated 2005)

Tests used:
[1] = Carotenoid ester content in plasma, back skin and abdominal fat of broilers (HPLC); type: in vivo, broiler chickens (Ross 308, Ross 508); details: average over doses, Table 4
Method: (§1) Pigmentation efficacy was assessed in egg yolk, in the back skin of the broiler carcass, and in broiler shanks by reflectance colorimetry accompanied by visual scoring (Roche Colour Fan). The deposition of the ethyl-β-apo-8′-carotenoate (control) and the other carotenoid esters was determined in egg yolk and in the broiler back skin. In addition, the carotenoid levels in plasma and abdominal fat were measured.
(§2) The trials were carried out using chickens of the type Ross 308 (trials MC-24/98 and MC-02/99) and Ross 508 (trials MC-11/99, MC-16/99, MC-24/99, and MC-03/00) (Couvir de la Bohardière, F-49290 Saint Laurent de la Plaine). One-day old broiler chickens, separated by sex, were divided by weight into experimental groups of ten animals each and reared in floor pens littered with wood shavings. The chickens were fed a low carotenoid basal grower diet until day 22 (trials MC-24/98, MC-02/99, and MC-11/99) or until day 15 (trials MC-16/99, MC-24/99, and MC-03/00). The low carotenoid basal grower diet contained less than 2 mg total xanthophylls per kg of feed, and its composition is described in Table 2. For the subsequent experimental period of three weeks, the birds received the basal diet supplemented with an appropriate pigment. The feed was given in the form of crumbled pellets during the first week and as pellets thereafter. The animals had unrestricted access to feed and water. A given treatment involved one group of male and one group of female chickens. Each group of chickens was weighed at day 22 (trials MC-24/98, MC-02/99, and MC-11/99) or day 15 (trials MC-16/99, MC-24/99, and MC-03/00) and on day 43. On day 42, five chickens per group were selected at random, labelled, and blood samples were taken from the jugular vein. At the end of the experiment (day 44) the animals were slaughtered in a commercial slaughterhouse (Freyburger, Dannemarie, France). The following day, the color of the skin (hind back of carcasses) and the shanks of the labelled chicken were measured by reflectance colorimetry (Minolta CR 200 apparatus, CIE-Lab system). Samples of the dorsal skin and abdominal fat were obtained, pooled for each experimental group, and the carotenoid concentration was determined. The concentration of carotenoids in feed, plasma, skin, and abdominal fat was determined by standard procedures as described after Tables 1 and 2.
The content of the various carotenoid esters in feed was determined according to the method of Schierle, et al. (J. Schierle , N. Faccin, V. Riegert, Analytical Methods for Vitamins and Carotenoids in Feed, Revised supplement: Determination of Stabilized Apocarotenoic Ester and Canthaxanthin in Premixes and Feeds, Roche publication no. 50771 (1995), publicly available from. F. Hoffmann-La Roche Ltd., CH-4070 Basel). This method was modified in that the mobile phase of the normal-phase HPLC contained 0.5% instead of 7% acetone in n-hexane, improving the separation of the E/Z-isomers of the carotenoid esters. Peaks were related to all-E- and Z-isomers of the various carotenoid esters by chromatography of heat-isomerized solutions of the respective reference substances in n-hexane. The HPLC system was calibrated with the all-E-isomer of ethyl β-apo-8′-carotenoate. The response factor of the various derivatives was deduced from that of ethyl β-apo-8′-carotenoate taking into account the respective molecular weight. The content of the Z-isomer fractions was calculated based on the response of the all-E-isomer and using a correction factor of 1.4 to account for the lower specific absorbance of the Z-isomers.
(§3) The HPLC-system for in-feed analysis was also used to quantify the carotenoid esters in egg yolk, broiler tissues, and broiler plasma, but the extraction procedure was different for the various matrices.
For plasma extraction, 1.0 g of the well-mixed plasma sample was introduced into a 10 ml test tube with 1.0 ml of demineralized water and 4.0 ml of ethanol, and the contents mixed on a Vortex shaker. […]

[2] = Carotenoid ester content and deposition rate in egg yolk of laying hens (HPLC); type: in vivo, laying hens (ISA Brown); details: egg yolk; for Deposition Rate Target Values % of Controls / Ethyl β-apo-8′-carotenoate Equivalents % of Controls: Table 8; for Deposition Rate % of Controls: Table 10
Method: as §1
Each year in February the pigmentation trials are started with a new flock of layers.
(§4) Preceding the trials the hens were fed a low carotenoid basal diet (produced at the CRNA) without carotenoid supplementation for at least 28 days. During the trials, the control group received the low carotenoid basal diet containing less than 2 mg total xanthophylls per kg of feed. The other animals were fed this diet supplemented with the appropriate pigments for three weeks. The diet was given to the animals ad libitum in mash form. The hens had free access to tap water.
Peaks were related to all-E- and Z-isomers of the various carotenoid esters by chromatography of heat-isomerized solutions of the respective reference substances in n-hexane. The HPLC system was calibrated with the all-E-isomer of ethyl β-apo-8′-carotenoate. The response factor of the various derivatives was deduced from that of ethyl β-apo-8′-carotenoate taking into account the respective molecular weight. The content of the Z-isomer fractions was calculated based on the response of the all-E-isomer and using a correction factor of 1.4 to account for the lower specific absorbance of the Z-isomers.
as §3
For the extraction of egg yolk, 10 g of pooled and homogenised yolk were mixed with 10 ml of demineralized water using a dispersion instrument (Polytron). 1.0 g of diluted egg yolk was introduced into a 10 ml test tube with 1.0 ml of demineralized water and 2.0 ml of ethanol, and the contents were mixed on a Vortex shaker. After addition of 4.0 ml of n-hexane, the mixture was further treated as described for plasma.

[3] = system: egg yolk; assay: Egg yolk colour: reflectance colorimetry and Roche Yolk Colour Fan; type: in vivo, laying hens (ISA Brown); details: egg yolk, laying hens, 5.0 mg/kg feed
Method: as §1
The trials were carried out following the standard experimental design used for egg yolk pigmentation trials at the Roche Research Center for Animal Nutrition (CRNA, F-68305 Village-Neuf, France). Each year in February the pigmentation trials are started with a new flock of layers. At the beginning of the trials the age of the laying hens (192 birds, type ‘ISA Brown’) were as follows:
as §4, with “water. Beside the unsupplemented control treatment, treatments were carried out involving the provision of supplemented feed, the results of these treatments being presented in Tables 7-9.” for “water.”
Egg yolk color was assessed as described by Steinberg, et al. (Arch. Geflügelk 64 (4), 180-187 (2000)). The yolks were manually separated from the whites of the eggs. The isolated yolks of three to six eggs were combined, weighed, and stirred with a glass rod until the color appeared homogeneous. The color hue was visually scored using the Roche Yolk Colour Fan (RYCF, version 1993). An aliquot of the pooled egg yolks was transferred into a glass cuvette yielding an approximately 2 cm thick layer. The color was then measured by means of a Dr. Lange Xeno Color LS 100 spectro-colorimeter with diffuse D65-illumination and a 8° viewing angle.
(§5) The color data were expressed as CIE L*a*b*-values including h*(hue) and C* (chroma). The values given in the tables per treatment and trial represent averages of color measurements of four egg yolk pools, ten broiler back skins, or ten broiler shanks (5 males and 5 females).

[4] = system: skin and shanks of broilers; assay: Reflectance colorimetry and visual classification of skin and shanks of broilers; type: in vivo, broiler chickens (Ross 308, Ross 508); set-up: key to Shanks Visual Classification / Skin Visual Classification: −; (+); +; ++ = good color; o = orange; details: dry carcasses, average over doses, Table 6
Method: as §1, §2
The color of broiler skin and shanks was measured using a tristimulus Minolta CR-300 Chromameter with diffuse D65-illumination and a 0° viewing angle. The color of the skin was read at three different points on the back of the dry broiler carcasses and average values of the triple measurements were recorded. The color of shanks was measured using single measurements at the ball between the toes.
as §5

Row | Analytical Content as Equivalent of Ethyl β-apo-8′-carotenoate in % of control Fat [1] [%] | Analytical Content as Equivalent of Ethyl β-apo-8′-carotenoate in % of control Plasma [1] [%] | Analytical Content as Equivalent of Ethyl β-apo-8′-carotenoate in % of control Skin [1] [%] | Deposition Rate Target Values % of Controls ([2]; trial H-25/99, 5.0 mg/kg feed) [%] | Ethyl β-apo-8′-carotenoate Equivalents % of Controls ([2]; trial H-25/99, 5.0 mg/kg feed) [%] | Deposition Rate % of Controls ([2]; trial H-25/99, 5.0 mg/kg feed) [%] | Structure (SMILES) | Color Fan Value % of Controls ([3]; trial H-25/99, Table 8) [%] | Chroma C*ab % of Controls ([3]; trial H-25/99, Table 10) [%] | Color Fan Value % of Controls ([3]; trial H-25/99, Table 10) [%] | Color Hue h*ab % of Controls ([3]; trial H-25/99, Table 10) [%] | Shanks Chroma C*ab % of Controls [4] [%] | Shanks Color Hue h*ab % of Controls [4] [%] | Shanks Visual Classification [4] | Skin Chroma C*ab % of Controls [4] [%] | Skin Color Hue h*ab % of Controls [4] [%] | Skin Visual Classification [4] | further results
1 | 49 | 66 | 85 | 89 | 79 | 89 | CC(C=CC=C(C)C=CC1=C(C)CCCC1(C)C)=CC=CC=C(C)C=CC=C(C)C(=O)OC(C)CC(C)C (stereo not drawn) [(12), 4-methyl-2-pentyl beta-apo-8′-carotenoate] | 101 | 74 | 101 | 109 | 95 | 101 | + | 91 | 99 | + | 
2 | 50 | 76 | 77 |  |  |  | CC(C=CC=C(C)C=CC1=C(C)CCCC1(C)C)=CC=CC=C(C)C=CC=C(C)C(=O)OC1CCCC1 [(15), cyclopentyl beta-apo-8′-carotenoate] |  |  |  |  | 99 | 100 | ++ | 106 | 99 | ++ | Deposition Rate Target Values % of Controls ([2]; trial H-05/00, 5.0 mg/kg feed): 95%; Ethyl β-apo-8′-carotenoate Equivalents % of Controls ([2]; trial H-05/00, 5.0 mg/kg feed): 95%; Deposition Rate % of Controls ([2]; trial H-05/00, 5.0 mg/kg feed): 95%; Color Fan Value % of Controls ([3]; trial H-05/00, Table 8): 116%; Chroma C*ab % of Controls ([3]; trial H-05/00, Table 10): 107%; Color Fan Value % of Controls ([3]; trial H-05/00, Table 10): 116%; Color Hue h*ab % of Controls ([3]; trial H-05/00, Table 10): 101%
3 | 38 | 60 | 44 | 99 | 82 | 99 | CC(C=CC=C(C)C=CC1=C(C)CCCC1(C)C)=CC=CC=C(C)C=CC=C(C)C(=O)OC1CCCCC1 [(16), cyclohexyl beta-apo-8′-carotenoate] | 108 | 112 | 108 | 97 | 84 | 103 | (+) | 80 | 95 | + | 
